According to article PMC8979682, “Synthesis, Antioxidant, and Antidiabetic Activities of Ketone Derivatives of Succinimide” (Evidence-based Complementary and Alternative Medicine : eCAM, 2022):
In brackets after ≈: the same amount, converted by molar mass.

Tests used:
DPPH scavenging activity = assay type: biochemical
Method: The antioxidant assay of the synthesized compounds was conducted following the previously reported method. A freshly prepared DPPH solution (50 μL of 1.0 × 10^−3 M) was added in methyl alcohol. Methanol was used as a control in this experiment. The prepared mixture was subjected to incubation at 25°C for 30 min. A decrease in the DPPH free radical concentration was calculated using a spectrophotometer at a wavelength of 517 nm. After incubation ascorbic acid was used as a positive control. The antioxidant activity was determined as a percent (%) of inhibition using the formula given:(1) percent inhibition=absorbancecontrol−absorbancesample/absorbancecontrol×100.

α-amylase = experiment: in vitro α-amylase inhibition; assay type: biochemical
Method: The starch solution was added, following incubation of the mixture, and the reaction mixture thus prepared was kept in water bath at 100°C for some time. Microplate reader measured the intensity of the color at 656 nm. Following formula was used to determine percentage inhibition:(3) percent inhibition=absorbancecontrol−absorbancesample/absorbancecontrol×100.

[1] = system: diabetic mice (by alloxan); experiment: antidiabetic activity in diabetic mice (by alloxan); assay type: in vivo
Method: Alloxan was used for the induction of diabetes mellitus according to reported procedure. Recently prepared Alloxan (ALX) was injected intraperitoneally to animals, fasting for 16 h, at a single dose of (150 mg/kg). […] Only diabetic animals, having random blood glucose level more than 200 mg/dl, were selected for studies. All the experimental procedure were approved from the ethical committee department of pharmacy, University of Swabi via letter No; UOS-06/2021.
A total of 30 animals were used to determine the hypoglycemic effect of the synthesized derivatives of succinimide. The experimental animals were segregated in six groups […], having five (5) animals in each group. Group I was designated as normal group and was given normal saline I/P only. Group II was given Tween 80, and Group III was given standard drug (glibenclamide) after the induction of diabetes. Group IV, Group V, and Group VI were given the various doses of synthesized compounds, respectively. […]

α-glucosidase = experiment: in vitro α-glucosidase inhibition; assay type: biochemical
Method: For in vitro α-glucosidase activity, samples were prepared by adding glucopyranoside to phosphate buffer solvent, and different concentrations of the synthesized compounds (31.25, 62.5, 125, 250, and 500 µg/ml), respectively, were added to this solution and then the enzyme glucosidase in distilled water (0.5 µg/ml) was also added to the above mixture. The reaction mixture thus prepared was subjected to incubation at 37°C for 20 minutes. The reaction was halted by adding HCl after incubation of the mixture. The intensity of the color was determined at 540 nm by spectrophotometer, and the formula given below was used for the determination of percent inhibition:(2) percent inhibition=absorbancecontrol−absorbancesample/absorbancecontrol×100.

ABTS scavenging activity = assay type: biochemical
Method: For the determination of the antioxidant activity of the synthesized compounds, the previously reported method for ABTS scavenging activity was used with slight modification. The stock solution of 2.4 mM of potassium per sulfate solution and 7 mM ABTS solution was prepared by mixing them in equal volumes for 16 h. The stock solution thus prepared was diluted using methyl alcohol to give absorption of 0.7 ± 0.02 units when studied at the wavelength of 734 nm using a spectrophotometer. Fresh ABTS solution was prepared for each ABTS scavenging assay. About 150 μL of the ABTS working solution was added to 50 μL of synthesized compounds and kept in darkness for 10 min. […] Methanol was used as blank, and standard ascorbic acid was run at the same time. The absorbance was calculated utilizing a microplate reader at 734 nm.

mice = experiment: oral glucose tolerance test (OGTT); assay type: in vivo; details: glucose 2 g/kg orally
Method: To perform OGTT mice fasted overnight were used including both control and treated mice. Glucose was administered orally at the dose of 2 g/kg against glibenclamide as standard drug. After administration of glucose, blood glucose level was calculated at time intervals of 0, 30, 60, and 120 min for assessment of the impact of exogenously given D-glucose on treated mice. OGTT was carried out 5 days before the completion of the study.
To perform OGTT, mice fasted overnight were used including both control and treated mice. Glucose was administered orally at the dose of 2 g/kg against glibenclamide as a standard drug. After administration of glucose, blood glucose level was calculated at time intervals of 0, 30, 60, and 120 min for assessment of the impact of exogenously given D-glucose on treated mice.

O=C1CCCCC1C1CC(=O)N(c2ccc(Br)cc2)C1=O (stereo not drawn) [BW3, (4-Bromophenyl)-3-(2-Oxocyclohexyl) Pyrrolidine-2,5-Dione]
IC50 (DPPH) (DPPH scavenging activity): 15.93 mg/L (≈ 45.5 µM) | (%) DPPH inhibitions (DPPH scavenging activity; 31.25 µg/ml): 57.69 ± 0.77^∗∗∗ % | (%) DPPH inhibitions (DPPH scavenging activity; 62.50 µg/ml): 66.67 ± 0.61^∗∗∗ % | (%) DPPH inhibitions (DPPH scavenging activity; 125 µg/ml): 71.79 ± 0.63^∗∗ % | (%) DPPH inhibitions (DPPH scavenging activity; 250 µg/ml): 76.90 ± 0.48^∗ % | (%) DPPH inhibitions (DPPH scavenging activity; 500 µg/ml): 83.03 ± 0.48^∗ % | IC50 (α-amylase) (α-amylase): 18.20 mg/L (≈ 52 µM) | % inhibitions (α-amylase) (α-amylase; 31.25 µg/ml): 54.67 ± 0.35^∗∗∗ % | % inhibitions (α-amylase) (α-amylase; 62.50 µg/ml): 62.16 ± 0.12^∗∗∗ % | % inhibitions (α-amylase) (α-amylase; 125 µg/ml): 67.62 ± 0.03^∗∗∗ % | % inhibitions (α-amylase) (α-amylase; 250 µg/ml): 71.36 ± 1.15^∗∗∗ % | % inhibitions (α-amylase) (α-amylase; 500 µg/ml): 75.35 ± 0.89^∗∗∗ % | Change in body weight ([1]; dose 31.25 μg/kg): −8.4 Gm | Decrease in blood glucose after 15 days ([1]; dose 31.25 μg/kg): -39 mg/dL | Blood glucose level, 0 day ([1]; dose 31.25 μg/kg): 439 mg/dL | Blood glucose level, 4th day ([1]; dose 31.25 μg/kg): 446 mg/dL | Blood glucose level, 7th day ([1]; dose 31.25 μg/kg): 457 mg/dL | Blood glucose level, 10th day ([1]; dose 31.25 μg/kg): 468 mg/dL | Blood glucose level, 15th day ([1]; dose 31.25 μg/kg): 478 mg/dL | Change in body weight ([1]; dose 62.5 μg/kg): −6.2 Gm | Decrease in blood glucose after 15 days ([1]; dose 62.5 μg/kg): -56 mg/dL | Blood glucose level, 0 day ([1]; dose 62.5 μg/kg): 443 mg/dL | Blood glucose level, 4th day ([1]; dose 62.5 μg/kg): 465 mg/dL | Blood glucose level, 7th day ([1]; dose 62.5 μg/kg): 478 mg/dL | Blood glucose level, 10th day ([1]; dose 62.5 μg/kg): 493 mg/dL | Blood glucose level, 15th day ([1]; dose 62.5 μg/kg): 499 mg/dL | Change in body weight ([1]; dose 125 μg/kg): +5.3 Gm | Decrease in blood glucose after 15 days ([1]; dose 125 μg/kg): -29 mg/dL | Blood glucose level, 0 day ([1]; dose 125 μg/kg): 387 mg/dL | Blood glucose level, 4th day ([1]; dose 125 μg/kg): 437 mg/dL | Blood glucose level, 7th day ([1]; dose 125 μg/kg): 430 mg/dL | Blood glucose level, 10th day ([1]; dose 125 μg/kg): 424 mg/dL | Blood glucose level, 15th day ([1]; dose 125 μg/kg): 416 mg/dL | Change in body weight ([1]; dose 250 μg/kg): −5.1 Gm | Decrease in blood glucose after 15 days ([1]; dose 250 μg/kg): 35 mg/dL | Blood glucose level, 0 day ([1]; dose 250 μg/kg): 431 mg/dL | Blood glucose level, 4th day ([1]; dose 250 μg/kg): 419 mg/dL | Blood glucose level, 7th day ([1]; dose 250 μg/kg): 411 mg/dL | Blood glucose level, 10th day ([1]; dose 250 μg/kg): 403 mg/dL | Blood glucose level, 15th day ([1]; dose 250 μg/kg): 396 mg/dL | Change in body weight ([1]; dose 500 μg/kg): +2.5 Gm | Decrease in blood glucose after 15 days ([1]; dose 500 μg/kg): 49 mg/dL | Blood glucose level, 0 day ([1]; dose 500 μg/kg): 430 mg/dL | Blood glucose level, 4th day ([1]; dose 500 μg/kg): 420 mg/dL | Blood glucose level, 7th day ([1]; dose 500 μg/kg): 401 mg/dL | Blood glucose level, 10th day ([1]; dose 500 μg/kg): 387 mg/dL | Blood glucose level, 15th day ([1]; dose 500 μg/kg): 381 mg/dL | IC50 (α-glucosidase) (α-glucosidase): 12.15 mg/L (≈ 34.7 µM) | % inhibitions (α-glucosidase) (α-glucosidase; 31.25 µg/ml): 57.47 ± 0.56^∗∗∗ % | % inhibitions (α-glucosidase) (α-glucosidase; 62.50 µg/ml): 63.28 ± 0.57^∗∗∗ % | % inhibitions (α-glucosidase) (α-glucosidase; 125 µg/ml): 67.90 ± 0.96^∗∗∗ % | % inhibitions (α-glucosidase) (α-glucosidase; 250 µg/ml): 72.08 ± 0.47^∗∗∗ % | % inhibitions (α-glucosidase) (α-glucosidase; 500 µg/ml): 77.85 ± 2.24^∗∗∗ % | IC50 (ABTS) (ABTS scavenging activity): 36.82 mg/L (≈ 105 µM) | (%) ABTS inhibitions (ABTS scavenging activity; 31.25 µg/ml): 48.42 ± 0.43^ns % | (%) ABTS inhibitions (ABTS scavenging activity; 62.50 µg/ml): 53.33 ± 0.66^∗ % | (%) ABTS inhibitions (ABTS scavenging activity; 125 µg/ml): 58.40 ± 0.82^∗∗∗ % | (%) ABTS inhibitions (ABTS scavenging activity; 250 µg/ml): 64.90 ± 0.45^∗∗∗ % | (%) ABTS inhibitions (ABTS scavenging activity; 500 µg/ml): 70.56 ± 1.06^∗∗∗ % | OGTT blood glucose, 0 minutes (mice; 0 minutes): 156.2 mg/dL | OGTT blood glucose, 30 minutes (mice; 30 minutes): 174.1 mg/dL | OGTT blood glucose, 60 minutes (mice; 60 minutes): 196.3 mg/dL | OGTT blood glucose, 120 minutes (mice; 120 minutes): 145.4 mg/dL
